Earlier results in patent publication US20170312254A1, “Low Dose Pharmaceutical Composition” (Cipla Limited, priority 2010, published 2017).

Legend:
[1] = premarketing studies

For `O=C(O)c1ccc(-n2nc(-c3ccccc3O)nc2-c2ccccc2O)cc1` [Deferasirox, 4-[3,5-bis (2-hydroxyphenyl)-[1,2, 4]triazol-1-yl] enzoic acid], the Lipid solubility is given as “highly lipid-soluble”, the Water solubility is given as “highly water insoluble” and the “Solubility in lower pH” value (lower pH) is given as “practically insoluble”. For the same compound, the “Solubility at pH 6.8” value (pH 6.8, until buffer strength is altered) was “insoluble” and the “Elevations in liver transaminases, fraction of patients” value [1] was “⅓”.
